Measurements reported in US20030229037A1, “Novel cationic amphiphiles” (priority 2000, published 2003).

What was measured:
COS-7 cells [1] = assay: Transfection of COS-7 cells with lipid/DNA lipoplexes (luciferase reporter plasmid pCMXluc), efficiency relative to DOTAP; format: cell-based, green meerkat; settings: for relative transfection efficiency (maximum): COS-7, pCMXluc, cationic lipid/DOPE 1:1, most effective lipid/DNA ratio of 1:1 to 15:1, 48 h, RLU/µg protein based on DOTAP = 100%
Procedure: A transfection experiment with cationic lipids can be broken down into four different individual steps. An important prerequisite for the success of a transfection experiment is the successful preparation of liposomes from the lipids to be tested (Step 1). DNA dissolved in buffer is then added to these liposomes, forming lipid/DNA complexes called lipoplexes (Step 2). The lipoplexes are then added to the cells (Step 3). The lipoplexes mediate the uptake of the DNA in the cell. Finally, the success of a transfection is quantified by determining the quantity of gene product forms and any toxicity that may occur is quantified by measuring the quantity of total protein (Step 4).
A reporter plasmid pCMXluc containing 8,600 base pairs (provided by R. Schüle) that codes for the enzyme luciferase was used to manufacture the lipoplexes. The composition of the lipoplexes and especially the proportion of lipid/DNA [Weibel et al., 1995; Felgner et al., 1994] are critical factors for obtaining a high level of protein expression. The number of negative charges of the plasmid used (one negatively-charged phosphate group per base) and the number of positive charges caused by adding cationic liposomes were used to calculate the proportion of lipid/DNA. For polycationic lipids, the number of all amino functions contained in the head group was made equal to the number of positive charges per lipid. Eight different lipoplexes with charge ratios from 1:1 to 15:1 were manufactured for each cationic lipid. In this process, each lipoplex received the same quantity of DNA but different quantities of lipid. An overview of the model calculation of various proportions of lipid/DNA is presented below.
After the plasmid (dissolved in buffer) was added to the liposomes, a pipette was used to carefully mix the formulation. It was then allowed to stand at room temperature for 60 minutes to allow the lipoplexes to form. The ripening conditions used here to prepare lipoplexes are based on findings described earlier [Yang and Huang, 1998] and also represent the result of a systematic optimization of lipoplex ripening conditions that were determined using a simple cationic lipid and a tricationic lipid, and which were used here to prepare all lipoplexes [Regelin, 2000].
The COS-7 cell line (kidney cells from the green meerkat, fibroblast-like cells) which is often used in transfection studies [You et al., 1999; Yu et al., 1999] was used for the cell experiments. This cell line is known to be easy to transfect and grows adherently. It was therefore expected that transfection data could be matched up with all synthesized cationic lipids, and that structure/effectiveness relationships could therefore be identified. The cell experiments were carried out in 96-well microtiter plates with 5,000 cells per well. Cell density has a considerable influence on the success of a transfection experiment when COS-7 cells are used [Deshmukh and Huang, 1997]: on the one hand, cells that are sowed too densely are harder to transfect than less densely sowed cells due to their reduced tendency to divide. While it is not the intention of the applicant to be bound to any particular theory, nor to affect in any measure the scope of the appended claims, it is presently believed that the explanation lies in that plasmids pass more easily into the nucleus of dividing cells [Mortimer et al., 1999], because the […] becomes full of holes or is dissolved during cell division. On the other hand, transfections of cells that have a very low cell density are often associated with elevated cytotoxicity, because more lipoplexes are now available per cell. A moderate cell density of 40-50% confluence, at which a sufficient level of cell division is observed, was selected for the transfection experiments to be carried out as part of this work. […]

COS-7 cells [2] = assay: Total protein quantity per well (BCA test) as measure of cytotoxicity of the lipoplexes; format: cell-based, green meerkat; settings: COS-7, lipid/DOPE 1:1 lipoplexes, 48 h
Procedure: 48 hours after the lipoplexes were added, the medium was removed and the cells were washed, because the medium would interfere with the tests to determine the transfection data. The cells were then lysed in order to make a homogeneous cell protein solution. The lysate of every single well was distributed and the total quantity of protein and the luciferase activity were determined in independent assays.
The total protein quantity was determined using the BCA test with bovine serum albumin as the standard and indicated in the unit μg/well. The protein quantity measured correlates with the number of adherent, living cells still present after transfection and can therefore be used as a measure of toxicity of the respective lipoplexes [Gao and Huang, 1991]. Comparisons of the protein quantities measured with results from cytotoxicity assays that were performed [Regelin, 2000] verify this relationship. The measured values were used in the calculation of transfection efficiency (see below).
Remove the supernatant medium completely, wash the cells once with a 0.9% NaCl solution, then add 50 μl lysis buffer (ROCHE, Germany) per well. […] Use a BCA test (PIERCE, Rockford, USA) to determine the quantity of total protein per well. […] Determine the protein concentration using the calibration curve in the spectral photometer (Spectra, TECAN, Germany) by quantifying the absorption at λ=550 nm.

[3] = Liposome preparation (lipid film hydration, ultrasound) and size distribution by photon correlation spectroscopy; format: physicochemical; settings: equimolar DOPE, HBS buffer pH 7.4, ultrasound bath
Procedure: Preferably, the cationic amphiphile and helper lipid are present in a molar mixing ratio of from about five to one to about one to five. More preferably, the cationic amphiphile and helper lipid are present in a molar mixing ratio of from about two to one to about one to two. Still more preferably, the molar mixing ratio of cationic amphiphile to helper lipid is about 1:1. To prepare liposomes, the cationic lipid to be tested and a helper lipid were dissolved in an organic solvent (e.g., chloroform/methanol mixtures).
The lipid films can be hydrated by adding buffer, which also gives rise to multilamellar vesicles (MLV). The MLV are then converted into small unilamellar vesicles (SUV) via ultrasonic treatment. [Moog, 1999; Lasic, 1994 and 1995]. The duration of exposure to ultrasound required until a homogenous population of SUV formed depended on the strength of the ultrasound bath. When a common commercial ultrasound bath was used, the process lasted 15-20 minutes. When a high performance ultrasound bath from Bandelin was used (which is also used to homogenize tissue samples) the same results were obtained after just 2 minutes. All liposomes were characterized by measuring their size distribution using photon correlation spectroscopy. In this process, the sizes of liposomes found were preferably between about 20 and about 200 nm, more preferably between about 50 and about 150 nanometers.
To make the liposome preparation, dissolve 1.29 μmol of the simple cationic lipid to be tested (bicationic: 0.645 μmol, tricationic: 0.43 μmol) in chloroform/methanol (2:1 v/v) in a test tube with an equimolar quantity of DOPE. Use the simple cationic lipid DOTAP without the addition of DOPE.
Slowly blow off the organic solvent with a TCS sample preparation system (Vapotherm, BARLEY, Bielefeld, Germany) using nitrogen (30-60 minutes) at room temperature. The dried lipid films can be stored for many months at −20° C. […]

[4] = amino groups, aqueous solution; literature values; cited from earlier work

Lipid A
relative transfection efficiency (maximum) (COS-7 cells [1]): approx. 300% | cytotoxicity of the lipoplexes (total protein quantity) (COS-7 cells [2]): do not exhibit elevated cytotoxicities

CC(C)CCC[C@@H](C)[C@H]1CC[C@H]2[C@@H]3CC=C4C[C@@H](OC(=O)CN(C)C)CC[C@]4(C)[C@H]3CC[C@]12C [lipid 4, N-Cholesteryloxycarbonylmethyl-N,N-dimethylamine]
relative transfection efficiency (maximum) (COS-7 cells [1]): did not result in a single transfection | cytotoxicity of the lipoplexes (total protein quantity) (COS-7 cells [2]): No cytotoxicity was observed | liposome formation in mixture with DOPE [3]: liposomes could not be prepared

NCCCCNCCCN [Spermidine]
pKa [4]: above 8

CN(C)C [trimethylamine]
pKa [4]: ~10

CCCCCCCCCCCCCCOCC(COC(=O)C[N+](C)(C)C)OCCCCCCCCCCCCCC (stereo not shown) [compound 111]
relative transfection efficiency (maximum) (COS-7 cells [1]): 83% | liposome formation in mixture with DOPE [3]: used successfully in a mixture with DOPE to prepare liposomes

CCCCCCCCCCCCCCOCC(COC(=O)CN(C)C)OCCCCCCCCCCCCCC (stereo not shown) [compound 110]
relative transfection efficiency (maximum) (COS-7 cells [1]): only very low transfection efficiencies | liposome formation in mixture with DOPE [3]: formed no liposomes

CCCCCCCCCCCCCCOCC(COC(=O)CNCCCCNCCCN)OCCCCCCCCCCCCCC.O=CO (stereo not shown) [lipid 115, 10-((2,3-di-tetradecyloxy)-propyloxcarbonylmethyl)-1,5,10-triazadekan formic acid salt]
relative transfection efficiency (maximum) (COS-7 cells [1]): 135%

CCCCCCCC/C=C\CCCCCCCC(=O)OCC(C[N+](C)(C)C)OC(=O)CCCCCCC/C=C\CCCCCCCC.[Cl-] (stereo not shown) [DOTAP, N-[1-(2,3-dioleoyloxy)propyl]-N,N,N-trimethylammoniumchloride, reference compound]
transfection efficiency of the standard lipid (defined as 100%) (COS-7 cells [1]; DOTAP without DOPE, lipid/DNA 2.5:1, COS-7, external standard in each microtiter plate): 100%
